Data on 2 molecules can be found in article PMC6222614, “Disubstituted 4-Chloro-3-nitrophenylthiourea Derivatives: Antimicrobial and Cytotoxic Studies” (Molecules : A Journal of Synthetic Chemistry and Natural …, 2018).

Molecules are shown by their SMILES. ≈ marks a conversion by molar mass, not a printed value.

Series [1] is described as follows: Cytotoxicity against mock-infected MT-4 cells (MTT). It is filed as cell-based, human. Conditions: human, concentration reducing viability of mock-infected MT-4 cells by 50%. How it is done: (§1) Cell line supporting the multiplication of Human Immunodeficiency Virus type-1 (HIV-1) was the CD4+ human T-cells, derived from human hematological tumors, containing an integrated HTLV-1 genome (MT-4). Cells were purchased from American Type Culture Collection (ATCC). Human Immunodeficiency Virus type-1 (HIV-1) IIIB laboratory strain was obtained from the supernatant of the persistently infected H9/IIIB cells (NIH 1983).
Exponentially growing MT-4 cells were seeded at an initial density of 1 × 10^5 cells/mL in 96-well plates in RPMI-1640 medium, supplemented with 10% fetal bovine serum (FBS), 100 units/mL penicillin G and 100 μg/mL streptomycin. Cell cultures were then incubated at 37 °C in a humidified, 5% CO2 atmosphere, in the absence or presence of serial dilutions of tested compounds. Cell viability was determined after 96 h at 37 °C by the 3-(4,5-dimethylthiazol-2-yl)-2,5-diphenyl-tetrazolium bromide (MTT) method.

In a further series the test system is HIV-1 IIIB. Nature of the series: Anti-HIV-1 activity: protection of MT-4 cells from virus-induced cytopathogenicity (MTT). It is filed as cell-based, Human Immunodeficiency Virus type-1. Conditions: Human immunodeficiency virus 1, IIIB, MT4, 96 h; 50% protection of MT-4 cells from HIV-1 induced cytopathogenicity, MTT, 4-day incubation; read-out: HIV-1IIIB EC50.
Source text: as §1
The activity of compounds against HIV-1 was based on inhibition of virus-induced cytopathogenicity in MT-4 cell acutely infected with a multiplicity of infection (m.o.i.) of 0.01. Briefly, 50 μL of RPMI containing 1 × 10^4 MT-4 cells were added to each well of flat-bottom microtiter trays, containing 50 μL of RPMI without or with serial dilutions of test compounds. Then, 20 μL of a HIV-1 suspension containing 100 CCID50 were added. After a 4-day incubation at 37 °C, cell viability was determined by the MTT method.
A general note: Damage to the host cells serves as the signal in cytopathic effect assays.

A further series deals with standard strains. Nature of the series: Antimicrobial activity against set of bacterial and fungal strains. It counts as cell-based. How it is done:
(§2) The antimicrobial activity of the compounds was tested on Gram-positive bacteria (Staphylococcus aureus NCTC 4163, Staphylococcus aureus ATCC 25923, Staphylococcus aureus ATCC 6538, Staphylococcus aureus ATCC 29213, Staphylococcus epidermidis ATCC 12228, Staphylococcus epidermidis ATCC 35984, Enterococcus faecalis ATCC 29212, Bacillus subtilis ATCC 6633, Bacillus cereus ATCC 11778, Micrococcus luteus ATCC 9341, Micrococcus luteus ATCC 10240); Gram-negative rods (Escherichia coli ATCC 10538, Escherichia coli ATCC 25922, Escherichia coli NCTC 8196, Proteus vulgaris NCTC 4635, Pseudomonas aeruginosa ATCC 15442, Pseudomonas aeruginosa NCTC 6749, Pseudomonas aeruginosa ATCC 27863, Bordetella bronchiseptica ATCC 4617) and yeasts (Candida albicans ATCC 10231, Candida albicans ATCC 90028, Candida parapsilosis ATCC 22019). Other microorganisms used were obtained from the collection of the Department of Pharmaceutical Microbiology, Medical University of Warsaw, Poland.
Antibacterial activity was examined by the disc-diffusion method under standard conditions using Mueller-Hinton II agar medium (Becton Dickinson) according to CLSI (previously NCCLS) guidelines. Antifungal activities were assessed using Mueller-Hinton agar + 2% glucose and 0.5 µg/mL Methylene Blue Dye Medium. Sterile filter paper discs (9 mm diameter, Whatman No 3 chromatography paper) were dripped with tested compound solutions (in DMSO) to load 400 μg of a given compound per disc. Dry discs were placed on the surface of appropriate agar medium. The results (diameter of the growth inhibition zone) were read after 18 h of incubation at 35 °C. Minimal Inhibitory Concentration (MIC) was tested by the twofold serial microdilution method (in 96-well microtiter plates) using Mueller-Hinton Broth medium (Beckton Dickinson) for bacteria or RPMI-1640 medium for Candida species according to CLSI guidelines. […] Minimal inhibitory concentrations (the lowest concentration of a tested agent that prevents visible growth of a microorganism) were read after 18 h (bacteria) or 24 h (yeasts) of incubation at 35 °C.

The subject of a further series is B. cereus ATCC 11778. Nature of the series: MIC, twofold serial microdilution. It counts as cell-based. Conditions: Bacillus cereus, ATCC11778; standard strain, 18 h, 35 °C. As to the method: as §2
(§3) Antibacterial activity was examined by the disc-diffusion method under standard conditions using Mueller-Hinton II agar medium (Becton Dickinson) according to CLSI (previously NCCLS) guidelines. Antifungal activities were assessed using Mueller-Hinton agar + 2% glucose and 0.5 µg/mL Methylene Blue Dye Medium. Sterile filter paper discs (9 mm diameter, Whatman No 3 chromatography paper) were dripped with tested compound solutions (in DMSO) to load 400 μg of a given compound per disc. Dry discs were placed on the surface of appropriate agar medium. The results (diameter of the growth inhibition zone) were read after 18 h of incubation at 35 °C. Minimal Inhibitory Concentration (MIC) was tested by the twofold serial microdilution method (in 96-well microtiter plates) using Mueller-Hinton Broth medium (Beckton Dickinson) for bacteria or RPMI-1640 medium for Candida species according to CLSI guidelines. The stock solution of tested agent was prepared in DMSO and diluted in sterile water. Concentrations of tested agents ranged from 0.125 to 512 µg/mL. The final inoculum of all studied microorganisms was 10^5 CFU/ mL^−1 (colony forming units per mL). Minimal inhibitory concentrations (the lowest concentration of a tested agent that prevents visible growth of a microorganism) were read after 18 h (bacteria) or 24 h (yeasts) of incubation at 35 °C.

The subject of the next series is B. subtilis ATCC 6633. The experiment in a line: MIC, twofold serial microdilution. It is filed as cell-based. The settings on record: Bacillus subtilis, ATCC6633; standard strain, 18 h, 35 °C. As to the method: as §2, §3
A general note: Dilution methods test growth across graded concentrations, often in twofold steps.

The subject of another series is E. faecalis ATCC 29212. Nature of the series: MIC, twofold serial microdilution. It counts as cell-based. Conditions: Enterococcus faecalis, ATCC29212; standard strain, 18 h, 35 °C. As to the method: as §2, §3
The subject of another series is M. luteus ATCC 10240. Nature of the series: MIC, twofold serial microdilution. It is filed as cell-based. Conditions: Micrococcus luteus, ATCC10240; standard strain, 18 h, 35 °C. As to the method:
as §2, §3

The subject of the next series is M. luteus ATCC 9341. The experiment in a line: MIC, twofold serial microdilution. It is filed as cell-based. Conditions: Micrococcus luteus, ATCC9341; standard strain, 18 h, 35 °C. How it is done:
as §2, §3

A further series concerns S. aureus ATCC 25923. The experiment in a line: MIC, twofold serial microdilution. It counts as cell-based. The settings on record: Staphylococcus aureus, ATCC25923; standard strain, 18 h, 35 °C. How it is done:
as §2, §3

The next series has as its system S. aureus ATCC 29213. The experiment in a line: MIC, twofold serial microdilution. It counts as cell-based. The settings on record: Staphylococcus aureus, ATCC29213; standard strain, 18 h, 35 °C. How it is done: as §2, §3
The next series concerns S. aureus ATCC 6538. The experiment in a line: MIC, twofold serial microdilution. It is filed as cell-based. The settings on record: Staphylococcus aureus, ATCC6538; standard strain, 18 h, 35 °C. How it is done: as §2, §3
The next series has as its system S. aureus NCTC 4163. The experiment in a line: MIC, twofold serial microdilution. It is filed as cell-based. The settings on record: Staphylococcus aureus, NCTC4163; standard strain, 18 h, 35 °C. How it is done:
as §2, §3

Series [2] has as its system S. epidermidis ATCC 12228. The experiment in a line: MIC, twofold serial microdilution. It counts as cell-based. Conditions: Staphylococcus epidermidis, ATCC12228; standard strain, 18 h, 35 °C. How it is done:
as §2, §3

In series [3] the test system is S. epidermidis ATCC 35984. The experiment in a line: MIC, twofold serial microdilution. It counts as cell-based. The settings on record: Staphylococcus epidermidis, ATCC35984; standard strain, 18 h, 35 °C. As to the method: as §2, §3
Series [4] relates to S. epidermidis MRSE 403/11. The experiment in a line: MIC, hospital methicillin-resistant strain. It is filed as cell-based. Conditions: Staphylococcus epidermidis. As to the method:
as §2, §3

For series [5], the system named is S. epidermidis MRSE 404/11. Nature of the series: MIC, hospital methicillin-resistant strain. Conditions: Staphylococcus epidermidis. It is filed as cell-based. As to the method: as §2, §3
Series [6] relates to S. epidermidis MRSE 405/11. The experiment in a line: MIC, hospital methicillin-resistant strain. It is filed as cell-based. Conditions: Staphylococcus epidermidis. How it is done: as §2, §3
The test system of series [7] is S. epidermidis MRSE 406/11. The experiment in a line: MIC, hospital methicillin-resistant strain. It counts as cell-based. The settings on record: Staphylococcus epidermidis. As to the method: as §2, §3
Series [8] deals with S. epidermidis MRSE 407/11. Nature of the series: MIC, hospital methicillin-resistant strain. It counts as cell-based. Conditions: Staphylococcus epidermidis. How it is done: as §2, §3
For series [9], the system named is S. epidermidis MRSE 409/11. Nature of the series: MIC, hospital methicillin-resistant strain. It is filed as cell-based. Conditions: Staphylococcus epidermidis. As to the method:
as §2, §3

Series [10] relates to S. epidermidis MRSE 411/11. Nature of the series: MIC, hospital methicillin-resistant strain. It counts as cell-based. Conditions: Staphylococcus epidermidis. As to the method:
as §2, §3

The subject of series [11] is S. epidermidis MRSE 412/11. The experiment in a line: MIC, hospital methicillin-resistant strain. Conditions: Staphylococcus epidermidis. It is filed as cell-based. As to the method: as §2, §3
In series [12] the test system is S. epidermidis MRSE 413/11. The experiment in a line: MIC, hospital methicillin-resistant strain. The settings on record: Staphylococcus epidermidis. It counts as cell-based. How it is done: as §2, §3
Series [13] relates to S. epidermidis MRSE 422/11. Nature of the series: MIC, hospital methicillin-resistant strain. It counts as cell-based. The settings on record: Staphylococcus epidermidis. How it is done:
as §2, §3

The next series concerns staphylococci. The experiment in a line: MIC against staphylococci. It counts as cell-based. Conditions: moderate activity. As to the method:
as §2, §3

The molecule `COc1ccc(NC(=S)Nc2ccc(Cl)c([N+](=O)[O-])c2)cc1` [Compound 21, 1-(4-chloro-3-nitrophenyl)-3-(4-methoxyphenyl)thiourea] displayed a melting point of 149 to 150.5 °C. In series [1], this molecule came in with a CC50 at 96 h of 35 µM. Besides, in the series on HIV-1 IIIB, the EC50 is over 35 µM. In the series on standard strains, the “activity against tested microorganisms” value is “devoid of activity”.
For `C=C(C)CNC(=S)Nc1ccc(Cl)c([N+](=O)[O-])c1` [Compound 27, 1-(4-chloro-3-nitrophenyl)-3-(2-methylprop-2-en-1-yl)thiourea], the melting point was in the range of 96 to 98 °C. This molecule also displayed a CC50 at 96 h in series [1] of 15.5 µM. For the same molecule, the EC50 with HIV-1 IIIB is over 15.5 µM. In the series with B. cereus ATCC 11778, this molecule had an MIC of 8 µg/mL (≈ 28 µM). The MIC in the series with B. subtilis ATCC 6633 came out at 16 µg/mL (≈ 56 µM). The same molecule registered an MIC against E. faecalis ATCC 29212 of 64 µg/mL (≈ 224 µM). The molecule also returned an MIC in the series on M. luteus ATCC 10240 of 32 µg/mL (≈ 112 µM). In the series on M. luteus ATCC 9341, this molecule displayed an MIC of 16 µg/mL (≈ 56 µM). Besides, the MIC with S. aureus ATCC 25923 stood at 16 µg/mL (≈ 56 µM). Further, the MIC in the series on S. aureus ATCC 29213 is 16 µg/mL (≈ 56 µM). The lowest concentration to inhibit growth in the series with S. aureus ATCC 6538 (MIC) was 16 µg/mL (≈ 56 µM). In the series with S. aureus NCTC 4163, this molecule came in with an MIC of 16 µg/mL (≈ 56 µM). For the same molecule, the MIC in series [2] worked out at 16 µg/mL (≈ 56 µM). This molecule also had an MIC in series [3] of 16 µg/mL (≈ 56 µM). The molecule also registered an MIC in series [4] of 32 µg/mL (≈ 112 µM). In [5], the MIC is 32 µg/mL (≈ 112 µM). In series [6], this molecule came in with an MIC of 32 µg/mL (≈ 112 µM). In addition, the lowest concentration to inhibit growth in [7] (MIC) was 32 µg/mL (≈ 112 µM). 32 µg/mL (≈ 112 µM) was the least that counted as inhibitory in [8] (MIC). Further, the MIC in series [9] worked out at 32 µg/mL (≈ 112 µM). For the same molecule, the MIC in [10] turned out to be 32 µg/mL (≈ 112 µM). This molecule gave an MIC in [11] of 64 µg/mL (≈ 224 µM). Moreover, in series [12], 32 µg/mL (≈ 112 µM) was the least that counted as inhibitory (MIC). It took 64 µg/mL (≈ 224 µM) to inhibit growth in [13] (MIC). The “MIC range towards staphylococci” value in the series on staphylococci lay within 8 to 16 µg/mL.

In general, CC50 refers to the concentration that lowers cell viability or growth by half. Read a low CC50 as greater toxicity to the cells. Usually EC50 stands for the concentration needed to bring the measured effect to its halfway point. Broadly, the melting point is the temperature of the solid-liquid transition. One may read the MIC as the lowest concentration found to suppress growth. A higher MIC goes with a less susceptible organism.
